Assay results taken from BindingDB's records for doi:10.1002/cbic.201600573 (X-Chem Pharmaceuticals, 2017).

Biological target: Tyrosine-protein kinase BTK (Homo sapiens, UniProt Q06187)
Assay: BTK FRET Competitive Binding Assay
Conditions: 30 °C
Method: The BTK time-resolved FRET-based competitive binding assay and cell-based BTK assays have been previously described.[Xu et al., J.Pharmacol. Exp. Ther., 341:90-103] For the BTK Omnia kinetic assay used in the mechanism of action experiments, assay reagents were prepared from the Omnia Y peptide 5 kit as follows: kinase reaction buffer was diluted to 1X in dH2O. A 10X substrate (100 μm) was prepared in dH20. ATP was prepared at 1 mM (10×) in dH2O, and 2 mM (10×) DTT was prepared in dH2O. A master mix of kinase buffer (10×), peptide (10×), and DTT (10×), all at 2 μL, and dH2O (4 μL) was prepared per well. Untagged BTK enzyme was run in a final concentration of 20 nM. Compounds at varying concentrations and ATP dilutions were prepared in 1V kinase buffer. Final compound DMSO concentration was 1.25 %. In a black non-binding plate (Corning 3676), enzyme (5 μL) was added to compound/ATP mix (5 μL). The plate was incubated for 20 min at 30 °C, then master mix (10 μL) was added into each well and mixed. The plate was incubated at 30 °C, and fluorescence intensity readings at λex=360 nm, λem=485 nm was collected at predetermined intervals on the Tecan M1000.

Chain of Tyrosine-protein kinase BTK (Q06187 whole entry): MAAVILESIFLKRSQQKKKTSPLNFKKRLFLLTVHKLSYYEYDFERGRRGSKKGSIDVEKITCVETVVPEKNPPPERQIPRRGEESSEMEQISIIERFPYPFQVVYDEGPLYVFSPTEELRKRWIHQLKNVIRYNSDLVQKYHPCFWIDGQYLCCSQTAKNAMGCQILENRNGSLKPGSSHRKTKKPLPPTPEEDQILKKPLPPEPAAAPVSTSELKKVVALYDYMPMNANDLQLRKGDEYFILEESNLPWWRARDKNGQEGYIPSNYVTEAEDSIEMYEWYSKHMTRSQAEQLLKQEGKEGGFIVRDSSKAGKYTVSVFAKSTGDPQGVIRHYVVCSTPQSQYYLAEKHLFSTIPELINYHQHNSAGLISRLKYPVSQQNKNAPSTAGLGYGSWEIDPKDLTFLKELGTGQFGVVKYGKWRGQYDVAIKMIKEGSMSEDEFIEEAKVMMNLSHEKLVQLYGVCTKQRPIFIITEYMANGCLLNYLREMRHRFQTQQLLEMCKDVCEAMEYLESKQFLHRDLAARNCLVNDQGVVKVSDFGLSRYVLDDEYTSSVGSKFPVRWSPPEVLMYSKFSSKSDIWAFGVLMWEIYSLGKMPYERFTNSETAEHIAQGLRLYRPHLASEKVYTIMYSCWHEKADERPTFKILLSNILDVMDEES

SMILES | IC50 [nM]
CNC(=O)Cc1cccc(NC(=O)c2n[nH]cc2CNc2ccccc2[C@H](O)c2ccccc2)c1 [BTK inhibitor, 2] | 210
CNC(=O)[C@H]1Cc2c([nH]c3ccccc23)CN1C(=O)c1occc1CNc1ccc2nccnc2c1 [BTK inhibitor, 3] | 0.55
CNC(=O)C(Cc1c[nH]c2ncccc12)NC(=O)c1n[nH]c2cccc(CNc3ccc(O)cc3Cl)c12 (stereo not drawn) [BTK inhibitor, 1] | 2500
